≈ marks a conversion by molar mass, not a printed value. Where “and” joins values, the source holds several entries; their conditions need not be identical. Equal values may be shown once. Entries after “also recorded” stand apart in the source; their conditions may differ. Read-outs that look alike come from different tables or passages of the source.
Tests used:
SARS-CoV-2 P2 strain = system: SARS-CoV-2 P2 strain; design: species or system C57BL/6 (WT) mice; conditions: mouse, in vivo
in vitro [1] = conditions: both, CD1, mouse, plasma, pH 7.4
SARS-CoV-2 PLpro [2] = target: T1, SARS-CoV-2 PLpro (Severe acute respiratory syndrome coronavirus 2, UniProt P0DTD1); assay: cell-based; type: cell-based
CYP2C19 [3] = target: T2, CYP2C19 (Homo sapiens, UniProt P33261); assay: biochemical
T2 sequence (P33261 whole entry): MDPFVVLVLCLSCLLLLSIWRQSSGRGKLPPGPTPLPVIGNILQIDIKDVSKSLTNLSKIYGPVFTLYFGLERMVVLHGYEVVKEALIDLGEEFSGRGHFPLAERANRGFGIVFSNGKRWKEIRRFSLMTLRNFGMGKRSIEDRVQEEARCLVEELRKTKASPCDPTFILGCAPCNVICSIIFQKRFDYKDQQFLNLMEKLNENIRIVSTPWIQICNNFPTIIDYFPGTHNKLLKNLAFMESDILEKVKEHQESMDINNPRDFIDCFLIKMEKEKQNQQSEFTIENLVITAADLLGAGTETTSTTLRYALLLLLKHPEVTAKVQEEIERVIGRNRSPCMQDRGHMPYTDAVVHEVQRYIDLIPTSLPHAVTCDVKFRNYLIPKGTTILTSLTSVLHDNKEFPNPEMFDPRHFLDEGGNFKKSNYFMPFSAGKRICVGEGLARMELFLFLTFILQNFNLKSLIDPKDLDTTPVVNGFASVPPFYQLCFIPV

hERG = hERG (Homo sapiens, UniProt Q12809); assay: biochemical
Sequence of hERG (Q12809 whole entry): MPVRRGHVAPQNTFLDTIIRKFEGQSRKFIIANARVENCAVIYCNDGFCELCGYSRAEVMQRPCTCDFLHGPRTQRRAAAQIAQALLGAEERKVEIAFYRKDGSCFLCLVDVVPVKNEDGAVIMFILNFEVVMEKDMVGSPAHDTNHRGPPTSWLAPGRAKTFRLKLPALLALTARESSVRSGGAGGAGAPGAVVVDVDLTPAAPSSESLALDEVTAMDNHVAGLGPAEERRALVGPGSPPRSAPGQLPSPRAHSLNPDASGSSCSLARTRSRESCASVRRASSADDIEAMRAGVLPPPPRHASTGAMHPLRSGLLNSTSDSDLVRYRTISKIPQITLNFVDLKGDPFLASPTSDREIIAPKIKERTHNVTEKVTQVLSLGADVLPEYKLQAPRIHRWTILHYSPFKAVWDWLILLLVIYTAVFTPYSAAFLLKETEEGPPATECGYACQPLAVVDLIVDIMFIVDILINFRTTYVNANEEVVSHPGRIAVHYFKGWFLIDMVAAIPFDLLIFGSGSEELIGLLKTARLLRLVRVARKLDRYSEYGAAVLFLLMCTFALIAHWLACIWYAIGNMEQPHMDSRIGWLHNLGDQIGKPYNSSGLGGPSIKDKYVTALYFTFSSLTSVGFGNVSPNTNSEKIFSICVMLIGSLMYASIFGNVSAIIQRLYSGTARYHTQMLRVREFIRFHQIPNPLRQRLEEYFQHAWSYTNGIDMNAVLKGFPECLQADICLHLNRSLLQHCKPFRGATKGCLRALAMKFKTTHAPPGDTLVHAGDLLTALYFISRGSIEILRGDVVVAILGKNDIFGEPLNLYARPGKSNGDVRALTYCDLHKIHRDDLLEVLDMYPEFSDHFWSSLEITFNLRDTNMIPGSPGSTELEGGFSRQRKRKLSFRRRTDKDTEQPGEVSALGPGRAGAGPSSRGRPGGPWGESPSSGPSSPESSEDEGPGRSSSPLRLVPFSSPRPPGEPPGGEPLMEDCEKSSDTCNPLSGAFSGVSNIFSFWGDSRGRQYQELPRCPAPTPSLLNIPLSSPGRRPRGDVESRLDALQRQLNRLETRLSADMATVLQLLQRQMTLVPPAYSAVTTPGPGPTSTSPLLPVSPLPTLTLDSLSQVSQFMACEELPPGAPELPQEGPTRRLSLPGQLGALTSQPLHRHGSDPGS

physchem [4] = conditions: kinetic from dmso stock
CYP2C8 [5] = target: T3, CYP2C8 (Homo sapiens, UniProt P10632); conditions: 20 µM
T3 sequence (P10632 whole entry): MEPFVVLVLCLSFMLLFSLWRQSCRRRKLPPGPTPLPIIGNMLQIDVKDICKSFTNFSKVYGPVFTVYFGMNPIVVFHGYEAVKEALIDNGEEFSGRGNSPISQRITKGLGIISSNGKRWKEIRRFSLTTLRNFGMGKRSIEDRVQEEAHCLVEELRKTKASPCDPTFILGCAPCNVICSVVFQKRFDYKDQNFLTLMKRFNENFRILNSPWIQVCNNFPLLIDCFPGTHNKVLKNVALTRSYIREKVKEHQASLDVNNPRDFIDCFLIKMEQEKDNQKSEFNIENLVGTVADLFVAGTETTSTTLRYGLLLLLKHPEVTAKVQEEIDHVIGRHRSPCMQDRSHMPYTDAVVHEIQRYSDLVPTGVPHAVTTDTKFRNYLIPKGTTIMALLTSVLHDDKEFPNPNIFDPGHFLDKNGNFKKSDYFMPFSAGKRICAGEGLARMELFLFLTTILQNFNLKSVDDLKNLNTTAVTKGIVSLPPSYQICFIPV

CYP2C9 [6] = target: T4, CYP2C9 (Homo sapiens, UniProt P11712); assay: biochemical
T4 sequence (P11712 whole entry): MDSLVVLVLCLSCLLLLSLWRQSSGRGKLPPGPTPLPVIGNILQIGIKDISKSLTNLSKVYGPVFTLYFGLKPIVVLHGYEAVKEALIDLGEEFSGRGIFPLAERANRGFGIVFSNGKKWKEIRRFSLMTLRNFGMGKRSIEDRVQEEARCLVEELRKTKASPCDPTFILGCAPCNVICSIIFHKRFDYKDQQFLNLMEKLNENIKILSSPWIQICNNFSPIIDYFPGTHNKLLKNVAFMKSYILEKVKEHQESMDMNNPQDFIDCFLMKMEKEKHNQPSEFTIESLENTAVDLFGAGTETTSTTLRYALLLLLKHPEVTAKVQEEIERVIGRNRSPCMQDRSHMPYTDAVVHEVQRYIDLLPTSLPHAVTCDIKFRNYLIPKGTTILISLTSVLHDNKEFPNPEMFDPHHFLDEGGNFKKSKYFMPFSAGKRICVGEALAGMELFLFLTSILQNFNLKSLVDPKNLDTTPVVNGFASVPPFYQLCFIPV

CYP2C8 [7] = target: T3, CYP2C8; assay: biochemical
SARS-CoV-2 P21 [8] = system: SARS-CoV-2 P21; design: species or system C57BL/6 (WT) mice; conditions: mouse, in vivo
CYP2C19 [9] = target: T2, CYP2C19
physchem [10] = conditions: pH 7.4
CYP1A2 [11] = target: T5, CYP1A2 (Homo sapiens, UniProt P05177)
T5 sequence (P05177 whole entry): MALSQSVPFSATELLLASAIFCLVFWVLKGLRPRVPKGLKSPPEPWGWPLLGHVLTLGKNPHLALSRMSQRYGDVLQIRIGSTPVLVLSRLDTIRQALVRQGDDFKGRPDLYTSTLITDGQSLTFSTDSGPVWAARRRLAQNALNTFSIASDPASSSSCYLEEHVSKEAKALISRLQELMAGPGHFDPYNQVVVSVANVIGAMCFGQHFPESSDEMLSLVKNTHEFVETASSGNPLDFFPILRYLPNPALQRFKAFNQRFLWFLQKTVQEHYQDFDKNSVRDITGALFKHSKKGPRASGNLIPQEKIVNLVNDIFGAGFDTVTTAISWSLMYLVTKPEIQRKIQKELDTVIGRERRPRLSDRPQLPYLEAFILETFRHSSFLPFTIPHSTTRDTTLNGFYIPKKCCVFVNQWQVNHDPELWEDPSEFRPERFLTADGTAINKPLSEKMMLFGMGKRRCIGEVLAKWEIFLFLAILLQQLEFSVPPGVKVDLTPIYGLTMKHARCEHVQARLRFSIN

in vivo = conditions: male, C57BL/6, mouse, po, 100 mg/kg
in vitro [12] = conditions: human, microsomes, pH 7.4
in vitro [13] = conditions: mouse, microsomes, pH 7.4
CYP3A4/5 [14] = assay: in vitro; conditions: human, microsomes
in vitro [15] = conditions: both, human, plasma, pH 7.4
[16] = system: SARS-CoV-2 clinical isolate VIC001; assay: microbe, parasite or virus in culture; type: cell-based
CYP3A4/5 [17] = assay: in vitro; conditions: human, microsomes; remark: listed apart in the source
CYP2C9 [18] = target: T4, CYP2C9; assay: in vitro; conditions: microsomes, pH 7.4
CYP2B6 [19] = target: T6, CYP2B6 (Homo sapiens, UniProt P20813); assay: biochemical
T6 sequence (P20813 whole entry): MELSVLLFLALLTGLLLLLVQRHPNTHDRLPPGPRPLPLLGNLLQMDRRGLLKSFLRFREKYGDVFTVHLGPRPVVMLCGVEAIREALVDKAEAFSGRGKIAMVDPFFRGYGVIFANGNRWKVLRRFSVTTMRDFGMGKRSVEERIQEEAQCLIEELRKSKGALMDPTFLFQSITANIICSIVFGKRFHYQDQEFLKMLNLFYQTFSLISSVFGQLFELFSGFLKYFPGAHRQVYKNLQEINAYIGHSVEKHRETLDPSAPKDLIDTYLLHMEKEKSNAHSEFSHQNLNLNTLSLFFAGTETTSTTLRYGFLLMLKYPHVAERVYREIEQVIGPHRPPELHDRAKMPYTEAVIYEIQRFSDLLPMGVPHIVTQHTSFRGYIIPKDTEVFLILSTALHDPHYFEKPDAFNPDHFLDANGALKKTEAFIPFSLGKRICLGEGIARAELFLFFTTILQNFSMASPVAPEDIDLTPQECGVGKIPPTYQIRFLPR

in vitro [20] = conditions: human, hepatocytes, pH 7.4
CYP1A2 [21] = target: T5, CYP1A2; assay: biochemical
SARS-CoV-2 P21 [22] = system: SARS-CoV-2 P21; design: species or system C57BL/6 (WT) mice; conditions: mouse, in vivo; remark: listed apart in the source
in vitro [23] = conditions: mouse, hepatocytes, pH 7.4
SARS-CoV-2 P21 [24] = system: SARS-CoV-2 P21; design: species or system C57BL/6 (WT) mice; Macrophages: unit not given here; conditions: mouse, in vivo
CYP2B6 [25] = target: T6, CYP2B6
CYP2D6 = CYP2D6 (Homo sapiens, UniProt P10635); assay: biochemical
Sequence of CYP2D6 (P10635 whole entry): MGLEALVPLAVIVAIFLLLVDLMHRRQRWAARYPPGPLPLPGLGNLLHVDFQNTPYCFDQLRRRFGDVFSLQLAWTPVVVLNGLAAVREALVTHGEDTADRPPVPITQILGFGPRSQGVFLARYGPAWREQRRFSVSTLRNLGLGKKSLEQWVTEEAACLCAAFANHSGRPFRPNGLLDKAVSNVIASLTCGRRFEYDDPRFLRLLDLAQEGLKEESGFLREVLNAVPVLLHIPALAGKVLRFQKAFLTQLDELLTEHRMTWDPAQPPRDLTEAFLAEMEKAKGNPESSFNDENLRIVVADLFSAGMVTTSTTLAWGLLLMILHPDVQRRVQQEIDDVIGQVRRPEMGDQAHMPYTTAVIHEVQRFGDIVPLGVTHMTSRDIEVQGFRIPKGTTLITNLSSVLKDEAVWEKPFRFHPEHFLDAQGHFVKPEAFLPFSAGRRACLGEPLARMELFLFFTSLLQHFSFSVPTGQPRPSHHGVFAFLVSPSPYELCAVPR

SARS-CoV-2 PLpro [26] = target: T1, SARS-CoV-2 PLpro; assay: biochemical; type: binding
SARS-CoV-2 PLpro [27] = target: T1, SARS-CoV-2 PLpro; assay: biochemical
[28] = system: SARS-CoV-2 clinical isolate VIC001; type: cell-based

## CCON=C(c1ccc2cc(OC)ccc2c1)C1CCCN(C2CCC(O)CC2)C1 (stereo not drawn) [WEHI-P8]
SARS-CoV-2 P2 strain
  antiviral activity (lung viral burden), mild model: antiviral efficacy in inhibiting P2 virus replication, comparable to that observed with WEHI-P8; also recorded: cannot be further enhanced by concurrent ritonavir co-treatment
SARS-CoV-2 P2 strain; 150 mg/kg
  antiviral efficacy (lung viral burden), mild model, treatment after infection: did not change the antiviral efficacy
In vitro [1]
  fraction unbound: 0.062
SARS-CoV-2 PLpro [2]
  EC50: 0.298 µM
CYP2C19 [3]
  IC50: > 20 µM
hERG
  IC50: 5.39 µM
Physchem [4]; pH 2, aqueous buffer
  solubility kinetic: > 320 µM
Physchem [4]; pH 6.5, aqueous buffer
  solubility kinetic: 160 to 320 µM (≈ 65.7 to 131 µg/mL)
CYP2C8 [5]
  CYP2C8 % inhibition at 20 µM: No measurable inhibition
CYP2C9 [6]
  IC50: > 20 µM
CYP2C8 [7]
  IC50: > 20 µM
SARS-CoV-2 P21 [8]
  gut inflammation: could not be rescued
  lung H&E pathology at 1 month, PASC model: reduced signs of haemorrhage and immune cell infiltrates
  neuroinflammation, microglial activation (IBA-1): significantly reduced
  right ventricle area: no significant differences between vehicle-treated or antiviral-treated groups
SARS-CoV-2 P21 [8]; 150 mg/kg
  infection-induced weight loss, PASC model: effectively prevented infection-induced weight loss
  survival of acute phase, PASC model: all treated animals survived the acute phase of infection
CYP2C19 [9]
  CYP2C19 % inhibition at 20 µM: No measurable inhibition
Physchem [10]
  chromatographic logD: 3.8
CYP1A2 [11]
  CYP1A2 % inhibition at 20 µM: No measurable inhibition
In vivo
  AUC(0-inf): ~108 µM·h
  AUC(0-t): 72.3 µM·h
  Cmax: 7.07 µM
  Tmax: 1 h
In vivo; Apparent t1/2
  half-life: 14 h
In vitro [12]
  half-life: 2.4 h
  microsomal CLint: 9.7 µL/min/mg
In vitro [13]
  half-life: 0.692 h
  microsomal CLint: 33.4 µL/min/mg
CYP3A4/5 [14]; Time dependent CYP3A4/5 % inhibition at 20 µM
  inhibition at 20 µM: 25%
CYP3A4/5 [14]; Time dependent CYP3A4/5 IC50 + NADPH
  IC50: > 20 µM
CYP3A4/5 [14]; Time dependent CYP3A4/5 IC50 - NADPH
  IC50: > 20 µM
In vitro [15]
  fraction unbound: 0.153
[16]; 0.01 µM
  Ext Data Fig 6e dose response, normalised (0 µM = 100): 105.19 and 94.34 and 104.76 and 91.8 and 114.493 and 94.2029
[16]; 0.02 µM
  Ext Data Fig 6e dose response, normalised (0 µM = 100): 94.81 and 103.77 and 95.24 and 103.28 and 113.043 and 95.6522
[16]; 0.04 µM
  Ext Data Fig 6e dose response, normalised (0 µM = 100): 90.91 and 75.47 and 93.65 and 80.33 and 105.797 and 88.4058
[16]; 0.08 µM
  Ext Data Fig 6e dose response, normalised (0 µM = 100): 79.22 and 86.79 and 63.49 and 63.93 and 86.9565 and 85.5072
[16]; 5 µM
  Ext Data Fig 6e dose response, normalised (0 µM = 100): 0
[16]; Severe acute respiratory syndrome coronavirus 2, Vero, 144 h, read-out: EC50 Replicate 1
  EC50: 0.465 µM
[16]; Severe acute respiratory syndrome coronavirus 2, Vero, 144 h, read-out: EC50 Replicate 2
  EC50: 0.333 µM
[16]; Severe acute respiratory syndrome coronavirus 2, Vero, 144 h, read-out: EC50 Replicate 3
  EC50: 0.273 µM
[16]; Severe acute respiratory syndrome coronavirus 2, Vero, read-out: Antiviral EC50 (plaque assay)
  EC50: 0.36 µM
[16]; Severe acute respiratory syndrome coronavirus 2, Vero, read-out: Antiviral EC50 (plaque assay) with Pgp inhibitor
  EC50: 0.29 µM
[16]; read-out: EC50 Replicate 1
  EC50: 0.376 µM
[16]; read-out: EC50 Replicate 2
  EC50: 0.237 µM
[16]; read-out: EC50 Replicate 3
  EC50: 0.253 µM
CYP3A4/5 [17]; pH 7.4, CYP3A4/5 % inhibition at 20 µM
  inhibition at 20 µM: 28%
CYP3A4/5 [17]; pH 7.4, CYP3A4/5 IC50
  IC50: > 20 µM
CYP2C9 [18]
  inhibition at 20 µM: 26%
CYP2B6 [19]
  IC50: > 20 µM
In vitro [20]
  half-life: 2.32 h
  hepatocyte CLint: 10 µL/min/1e6 cells
CYP1A2 [21]
  IC50: > 20 µM
SARS-CoV-2 P21 [22]
  NORT exploratory behaviour / preference for the novel object: significantly higher preference for the novel object
  NORT impairment in females: partially mitigated
  overall distance travelled, infected females: rescued by WEHI-P8 treatment
  recognition index: did not reveal significant sex- or drug dependent differences
SARS-CoV-2 P21 [22]; 150 mg/kg
  Recognition Index (females): 0.5 and 0.9 and 0.57 and 0.7
  Recognition Index (males): 0.8 and 0.529 and 0.7
In vitro [23]
  half-life: 1.38 h
  hepatocyte CLint: 16.8 µL/min/1e6 cells
SARS-CoV-2 P21 [24]
  Log2 Fold change IL-10: -6.27
  Macrophages: 10.22 and 12.4 and 14.7 and 14.8 and 13 and 14.2 and 15.1 and 11.5
  reduction of viral burdens, severe model: more effective than PLT at reducing viral burdens
  weight loss, severe model: rescuing mice from weight loss
SARS-CoV-2 P21 [24]; 100 mg/kg
  lung H&E histology, severe model: only mild inflammation
  lung IHC immune cell subsets, severe model: significantly reduce the numbers of macrophages and neutrophils
  lung cytokine and chemokine profiling, severe model: significantly reduce the levels of a wider range of pro-inflammatory cytokines and chemokines
SARS-CoV-2 P21 [24]; 150 mg/kg
  efficacy of pre-infection regimen versus treatment after infection: no more effective than initiating treatment after infection; also recorded: did not confer a significant benefit compared to post-infection treatment initiation
  lung H&E histology, severe model: minimal to unremarkable histological changes
  lung IHC immune cell subsets, severe model: also reduced the number of T cells
CYP2B6 [25]
  CYP2B6 % inhibition at 20 µM: No measurable inhibition
CYP2D6
  IC50: 13.8 µM
SARS-CoV-2 PLpro [26]
  Kd: 0.009 µM
  Response (RU), report points: 23.2517 RU and 23.7185 RU and 25.1250 RU and 25.7597 RU and 25.8254 RU and 25.1414 RU
SARS-CoV-2 PLpro [27]; Conc 0.545 µM, read-out: SARS-CoV-2 PLpro, UbRh dose-response
  inhibition at 0.545 µM: 96.1%
SARS-CoV-2 PLpro [27]; Conc 1.63 µM, read-out: SARS-CoV-2 PLpro, UbRh dose-response
  inhibition at 1.63 µM: 97.9%
SARS-CoV-2 PLpro [27]; Conc 4.9 µM, read-out: SARS-CoV-2 PLpro, UbRh dose-response
  inhibition at 4.9 µM: 100%
SARS-CoV-2 PLpro [27]; IC50 (UbRh) SARS-CoV-2 PLpro
  IC50: 0.012 µM
SARS-CoV-2 PLpro [27]; read-out: SARS-CoV-2 PLpro, UbRh dose-response
  inhibition at […]: 95.1% and 83.6%

## CCC(CC)COC(=O)[C@H](C)N[P@](=O)(OC[C@H]1O[C@@](C#N)(c2ccc3c(N)ncnn23)[C@H](O)[C@@H]1O)Oc1ccccc1 [Remdesivir, remdesivir]
[28]
  TCID50: 15.3
